Source: patent publication US9475816B2, “Substituted-1,4-dihydropyrazolo[4,3-b]indoles” (TAKEDA PHARMACEUTICAL COMPANY LIMITED, priority 2012, dated 2016)
pIC50: −log10 of the molar value.

How the values were obtained:
human MetAP2 enzyme [1] = biological target: T1, human MetAP2 enzyme (Homo sapiens, UniProt P50579); assay: MetAP2 enzyme assay, MetAP2 enzyme complexed with cobalt ions; conditions: MetAP2 Co pIC50, 10 μM CoCl2; -log(IC50), IC50 molar
human MetAP2 enzyme [2] = biological target: T1, human MetAP2 enzyme; assay: MetAP2 enzyme assay, MetAP2 enzyme complexed with manganese ions; conditions: MetAP2 Mn pIC50, 10 μM MnCl2; -log(IC50), IC50 molar
Description: DNA encoding the full-length sequence of human MetAP2 enzyme is amplified by PCR and cloned into a pFastBac expression vector (Invitrogen). Recombinant baculovirus incorporating the MetAP2 construct is generated by transposition using the Bac-to-Bac system (Invitrogen). The expression of recombinant protein is carried out by infection of Spodoptera frugiperda Sf9 cells (Invitrogen) in 5L Wave Bioreactors (Wave Biotech). Recombinant protein is isolated from cellular extracts by binding to an SP Hitrap Fast Flow or SP Sepharose (Sigma) column, and the protein is eluted using a NaCl gradient. Partially purified extracts of MetAP2 are further purified by an AKTA FPLC over a Superdex-200 column (GE). The purity of MetAP2 protein is determined on denaturing SDS-PAGE gel.
The results for each well are expressed as percent inhibition and calculated using the equation:

T1 sequence (P50579 whole entry): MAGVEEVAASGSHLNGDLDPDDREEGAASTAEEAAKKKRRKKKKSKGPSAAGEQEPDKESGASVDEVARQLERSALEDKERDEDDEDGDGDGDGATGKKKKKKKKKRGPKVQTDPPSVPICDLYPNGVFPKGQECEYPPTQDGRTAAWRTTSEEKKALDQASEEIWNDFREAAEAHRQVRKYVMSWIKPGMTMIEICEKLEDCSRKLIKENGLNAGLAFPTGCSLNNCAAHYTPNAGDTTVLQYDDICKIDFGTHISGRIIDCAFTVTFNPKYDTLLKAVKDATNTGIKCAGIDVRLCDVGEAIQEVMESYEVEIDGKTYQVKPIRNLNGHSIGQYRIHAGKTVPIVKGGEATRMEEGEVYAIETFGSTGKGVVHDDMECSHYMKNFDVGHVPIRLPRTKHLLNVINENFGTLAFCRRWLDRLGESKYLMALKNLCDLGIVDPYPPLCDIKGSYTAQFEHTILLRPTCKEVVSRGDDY

pIC50 (human MetAP2 enzyme [1])	pIC50 (human MetAP2 enzyme [2])	SMILES
8.00	8.10	Cc1cc(C(=O)N2CC(O)C2)ncc1-n1c2ccc(F)cc2c2[nH]ncc21 [Example 94, (5-(7-Fluoropyrazolo[4,3-b]indol-4(1H)-yl)-4-methylpyridin-2-yl)(3-hydroxyazetidin-1-yl)methanone]
8.00	8.10	Cc1cc2cn[nH]c2cc1-n1c2ccc(F)cc2c2[nH]ncc21 [Example 26, 7-Fluoro-4-(5-methyl-1H-indazol-6-yl)-1,4-dihydropyrazolo[4,3-b]indole]
8.10	8.10	Cc1nc(C(=O)NCCC#N)ccc1-n1c2ccc(F)cc2c2[nH]ncc21 [Example 122, N-(2-Cyanoethyl)-5-(7-fluoropyrazolo[4,3-b]indol-4(1H)-yl)-6-methylpicolinamide]
8.10	7.90	Cc1nc(NC[C@@H](O)CO)ncc1-n1c2ccc(F)cc2c2[nH]ncc21 [Example 86, (2R)-3-((5-(7-Fluoropyrazolo[4,3-b]indol-4(1H)-yl)-4-methylpyrimidin-2-yl)amino)propane-1,2-diol]
7.80	8.00	Cc1nc(N2CCC(O)CC2)ncc1-n1c2ccc(F)cc2c2[nH]ncc21 [Example 78, 1-(5-(7-Fluoropyrazolo[4,3-b]indol-4(1H)-yl)-4-methylpyrimidin-2-yl)piperidin-4-ol]
7.60	8.00	Cc1nc(C(=O)NCCCO)ccc1-n1c2ccc(F)cc2c2[nH]ncc21 [Example 118, 5-(7-Fluoropyrazolo[4,3-b]indol-4(1H)-yl)-N-(3-hydroxypropyl)-6-methylpicolinamide]
7.90	7.90	Cc1cc2[nH]ncc2cc1-n1c2ccc(F)cc2c2[nH]ncc21 [Example 19, 7-Fluoro-4-(6-methyl-1H-indazol-5-yl)-1,4-dihydropyrazolo[4,3-b]indole]
8.20	8.10	Cc1nc(N2CCO[C@H](CO)C2)ncc1-n1c2ccc(F)cc2c2[nH]ncc21 [Example 83, ((2S)-4-(5-(7-Fluoropyrazolo[4,3-b]indol-4(1H)-yl)-4-methylpyrimidin-2-yl)morpholin-2-yl)methanol]
7.80	8.30	Cc1nc2c(cc1-n1c3ccc(F)cc3c3[nH]ncc31)ncn2C[C@@H](O)CO [Example 90, (2R)-3-(6-(7-Fluoropyrazolo[4,3-b]indol-4(1H)-yl)-5-methyl-3H-imidazo[4,5-b]pyridin-3-yl)propane-1,2-diol]
7.00	7.30	Fc1cc2c3[nH]ncc3n(Cc3ccccc3)c2cc1F [Example 2, 4-Benzyl-6,7-difluoro-1,4-dihydropyrazolo[4,3-b]indole]
7.30	7.20	COCCNC(=O)c1cc(C)c(-n2c3ccc(F)cc3c3[nH]ncc32)cn1 [Example 105, 5-(7-Fluoropyrazolo[4,3-b]indol-4(1H)-yl)-N-(2-methoxyethyl)-4-methylpicolinamide]
7.80	7.80	Cc1[nH]c(=O)ccc1-n1c2ccc(F)cc2c2[nH]ncc21 [Example 40, 5-(7-Fluoropyrazolo[4,3-b]indol-4(1H)-yl)-6-methylpyridin-2(1H)-one]
8.10	8.00	Cc1nc2c(cc1-n1c3ccc(F)cc3c3[nH]ncc31)[nH]c(=O)n2C[C@H](O)CO [Example 33, 3-((S)-2,3-Dihydroxypropyl)-6-(7-fluoropyrazolo[4,3-b]indol-4(1H)-yl)-5-methyl-1H-imidazo[4,5-b]pyridin-2(3H)-one]
7.90	8.40	Cc1nc2c(cc1-n1c3ccc(F)cc3c3[nH]ncc31)ncn2CCS(C)(=O)=O [Example 116, 7-Fluoro-4-(5-methyl-3-(2-(methylsulfonyl)ethyl)-3H-imidazo[4,5-b]pyridin-6-yl)-1,4-dihydropyrazolo[4,3-b]indole]
8.00	8.00	Cc1nc(C(=O)NC[C@H](C)O)ccc1-n1c2ccc(F)cc2c2[nH]ncc21 [Example 126, 5-(7-Fluoropyrazolo[4,3-b]indol-4(1H)-yl)-N-((2S)-2-hydroxypropyl)-6-methylpicolinamide]
7.50	7.30	O=C(c1ccc(Cn2c3ccc(F)cc3c3[nH]ncc32)cc1)N1CCOCC1 [Example 52, (4-((7-Fluoropyrazolo[4,3-b]indol-4(1H)-yl)methyl)phenyl)(morpholino)methanone]
8.40	8.20	CCn1cnc2cc(-n3c4ccc(F)cc4c4[nH]ncc43)c(C)nc21 [Example 30, 4-(3-Ethyl-5-methyl-3H-imidazo[4,5-b]pyridin-6-yl)-7-fluoro-1,4-dihydropyrazolo[4,3-b]indole]
8.10	8.10	Cc1cc2cnn(C)c2cc1-n1c2ccc(F)cc2c2[nH]ncc21 [Example 14, 4-(1,5-Dimethyl-1H-indazol-6-yl)-7-fluoro-1,4-dihydropyrazolo[4,3-b]indole]
8.30	8.30	Cc1nc(N2C[C@H]3C[C@H]3[C@@H]2C(N)=O)ncc1-n1c2ccc(F)cc2c2[nH]ncc21 [Example 135, (1R,2R,5S)-3-(5-(7-Fluoropyrazolo[4,3-b]indol-4(1H)-yl)-4-methylpyrimidin-2-yl)-3-azabicyclo[3.1.0]hexane-2-carboxamide]
7.90	8.00	Cc1cc(C(=O)NCCCO)ncc1-n1c2ccc(F)cc2c2[nH]ncc21 [Example 115, 5-(7-Fluoropyrazolo[4,3-b]indol-4(1H)-yl)-N-(3-hydroxypropyl)-4-methylpicolinamide]
8.20	8.10	CNC(=O)[C@@H]1CCCN1c1ncc(-n2c3ccc(F)cc3c3[nH]ncc32)c(C)n1 [Example 38, (2S)-1-(5-(7-Fluoropyrazolo[4,3-b]indol-4(1H)-yl)-4-methylpyrimidin-2-yl)-N-methylpyrrolidine-2-carboxamide]
7.70	7.50	Cc1nc2c(cc1-n1c3ccc(F)cc3c3[nH]ncc31)ncn2CCCO [Example 80, 3-(6-(7-Fluoropyrazolo[4,3-b]indol-4(1H)-yl)-5-methyl-3H-imidazo[4,5-b]pyridin-3-yl)propan-1-ol]
7.90	8.00	Cc1nc(N2CCC(CO)CC2)ncc1-n1c2ccc(F)cc2c2[nH]ncc21 [Example 59, (1-(5-(7-Fluoropyrazolo[4,3-b]indol-4(1H)-yl)-4-methylpyrimidin-2-yl)piperidin-4-yl)methanol]
8.00	8.20	Cc1nc(C(=O)N2CC(O)C2)ccc1-n1c2ccc(F)cc2c2[nH]ncc21 [Example 97, (5-(7-Fluoropyrazolo[4,3-b]indol-4(1H)-yl)-6-methylpyridin-2-yl)(3-hydroxyazetidin-1-yl)methanone]
8.20	8.40	Cc1nc(N2CC[C@H](O)C2)ccc1-n1c2ccc(F)cc2c2[nH]ncc21 [Example 27, (3S)-1-(5-(7-Fluoropyrazolo[4,3-b]indol-4(1H)-yl)-6-methylpyridin-2-yl)pyrrolidin-3-ol]
7.90	8.00	Cc1c(-n2c3ccc(F)cc3c3[nH]ncc32)ccc2[nH]ncc12 [Example 71, 7-Fluoro-4-(4-methyl-1H-indazol-5-yl)-1,4-dihydropyrazolo[4,3-b]indole]
